Measurements published in article PMC9029360, “Cyclooxygenase-Inhibiting Platinum(IV) Prodrugs with Potent Anticancer Activity” (Pharmaceutics, 2022).
Like-named read-outs stand apart in the source and are kept apart here.

Experiments:
[1] = test system: HT29 colon cancer cell line; test: In vitro cytotoxicity MTT assay, HT29 colon; assay type: cell-based; settings: 72 h drug exposure, n = 3
U87 glioblastoma [2] = test: In vitro cytotoxicity MTT assay, U87 glioblastoma; assay type: cell-based; settings: 72 h drug exposure, n = 3
MCF-7 breast [3] = test: In vitro cytotoxicity MTT assay, MCF-7 breast; assay type: cell-based; settings: 72 h drug exposure, n = 3
A2780 ovarian [4] = test: In vitro cytotoxicity MTT assay, A2780 ovarian; assay type: cell-based; settings: 72 h drug exposure, n = 3
H460 lung [5] = test: In vitro cytotoxicity MTT assay, H460 lung; assay type: cell-based; settings: 72 h drug exposure, n = 3
A431 skin [6] = test: In vitro cytotoxicity MTT assay, A431 skin; assay type: cell-based; settings: 72 h drug exposure, n = 3
[7] = test system: Du145 prostate cancer cell line; test: In vitro cytotoxicity MTT assay, Du145 prostate; assay type: cell-based; settings: 72 h drug exposure, n = 3
BE2-C neuroblastoma [8] = test: In vitro cytotoxicity MTT assay, BE2-C neuroblastoma; assay type: cell-based; settings: 72 h drug exposure, n = 3
SJ-G2 glioblastoma [9] = test: In vitro cytotoxicity MTT assay, SJ-G2 glioblastoma; assay type: cell-based; settings: 72 h drug exposure, n = 3
MIA pancreas [10] = test: In vitro cytotoxicity MTT assay, MIA pancreas; assay type: cell-based; settings: 72 h drug exposure, n = 3
[11] = test system: MCF10A breast cell line (non-tumour derived); test: In vitro cytotoxicity MTT assay, non-tumour MCF10A breast; assay type: cell-based; settings: MCF10A (non-cancerous), 72 h drug exposure, n = 3
[12] = test system: cisplatin-resistant ADDP ovarian (subclone of A2780 cell line); test: In vitro cytotoxicity MTT assay, cisplatin-resistant ADDP ovarian; assay type: cell-based; settings: ADDP (cisplatin-resistant); MTT, 72 h drug exposure, n = 3
[13] = Lipophilicity by RP-HPLC (log kw); assay type: physicochemical; settings: capacity factor extrapolated to 100% water
Method: HPLC experiments were executed on an Agilent (Melbourne, Australia) Technologies 1260 Infinity instrument equipped with a Phenomenex (Sydney, Australia) Onyx^TM Monolithic C18 reverse phase column (100 × 4.6 mm, 130 Å). The mobile phase was comprised of 0.06% TFA in water (solvent A) and 0.06% TFA in an acetonitrile-water mixture (9:1) (solvent B). A sample injection volume of 10 µL was used at a flow rate of 1 mL/min and eluted over a gradient of 0–100% for 15 min. A PDA was used to detect the eluting peaks at 254 nm. Lipophilicity experiments to determine logkw values were undertaken following previously published methods. Rather than a gradient, different isocratic ratios ranging from 28–56% of solvent B were employed and the retention times measured for each complex. Potassium iodide was used as an external dead volume marker to determine the dead time of the column. The following equation was used to calculate the capacity factors:(1) k=tr−t0/t0 where k is the capacity factor, tr is the retention time of the analyte, and t0 is the dead time. Following this, log k was plotted against the percentage of ACN. Five different concentrations of ACN were used to produce a linear plot comprised of R^2 > 0.99. This graph produced the following equation:(2) logk=Sφ+logkw where S is the slope, φ is the % ACN, and the y-intercept, represented as logkw , is the capacity factor of the compound in 100% water.
Lipophilicity studies were carried out to determine the logkw of each complex. This was ascertained through a RP-HPLC based approach whereby complexes were eluted at several isocratic ratios. In turn, retention times were employed as in Equation (1), where the capacity factor (k) was calculated. The log k value at each ratio was then plotted against the percentage of the organic solvent used in solvent B, producing a linear equation that allowed for logkw to be extrapolated (Figure S43). The logkw value represents the retention factor in a 100% aqueous solution; thus, higher values indicate more lipophilic compounds. While this method for determining lipophilicity is slightly different from the shake-flask method, it has been used previously to compare a series of complexes that are structurally similar and is fitting for this group of complexes.

[14] = test system: HT29 colon cancer cell line; settings: MTT, 72 h, cited from earlier work
U87 glioblastoma [15] = settings: MTT, 72 h, cited from earlier work
MCF-7 breast [16] = settings: MTT, 72 h, cited from earlier work
A2780 ovarian [17] = settings: MTT, 72 h, cited from earlier work
H460 lung [18] = settings: MTT, 72 h, cited from earlier work
A431 skin [19] = settings: MTT, 72 h, cited from earlier work
[20] = test system: Du145 prostate cancer cell line; settings: MTT, 72 h, cited from earlier work
BE2-C neuroblastoma [21] = settings: MTT, 72 h, cited from earlier work
SJ-G2 glioblastoma [22] = settings: MTT, 72 h, cited from earlier work
MIA pancreas [23] = settings: MTT, 72 h, cited from earlier work
[24] = test system: MCF10A breast cell line (non-tumour derived); settings: MTT, 72 h, cited from earlier work
[25] = test system: cisplatin-resistant ADDP ovarian (subclone of A2780 cell line); settings: MTT, 72 h, ref [2] Macias et al., Eur. J. Chem. 2015; cited from earlier work
[26] = ref [2] Macias et al., Eur. J. Chem. 2015
[27] = ref [1] Deo et al., Dalton Trans. 2019

SMILES	GI50 [1] [nM]	GI50 (U87 glioblastoma [2]) [nM]	GI50 (MCF-7 breast [3]) [nM]	GI50 (A2780 ovarian [4]) [nM]	GI50 (H460 lung [5]) [nM]	GI50 (A431 skin [6]) [nM]	GI50 [7] [nM]	GI50 (BE2-C neuroblastoma [8]) [nM]	GI50 (SJ-G2 glioblastoma [9]) [nM]	GI50 (MIA pancreas [10]) [nM]	GI50 [11] [nM]	GI50 [12] [nM]	Log kw [13]	other results
COc1ccc2c(c1)c(CC(=O)[O][Pt-2]13([OH])([NH2+]C4CCCCC4[NH2+]1)[n+]1cccc4c(C)c(C)c5ccc[n+]3c5c41)c(C)n2C(=O)c1ccc(Cl)cc1.O=[N+]([O-])[O-].O=[N+]([O-])[O-] (centres unmarked) [compound 2, [Pt(56Me2Phen)(SSDACH)(Indomethacin)(OH)](NO3)2]	13 ± 3.6	47 ± 4.9	37 ± 2.3	34 ± 8.6	22 ± 4.2	40 ± 14	7.5 ± 3.6	130 ± 41	170 ± 19	21 ± 2	23 ± 8.2	24 ± 6.1	1.28	
N.N.O=C([O-])C1(C(=O)[O-])CCC1.[Pt+2] [Carboplatin, carboplatin]														GI50 [14, 26]: > 50000 nM; GI50 (U87 glioblastoma [15]; [26]): > 50 µM; GI50 (MCF-7 breast [16]; [26]): > 50 µM; GI50 (A2780 ovarian [17]; [26]): 9.2 ± 2.9 µM; GI50 (H460 lung [18]; [26]): 14 ± 1 µM; GI50 (A431 skin [19]; [26]): 24.3 µM; GI50 [20, 26]: 14.7 µM; GI50 (BE2-C neuroblastoma [21]; [26]): 18.7 µM; GI50 (SJ-G2 glioblastoma [22]; [26]): 5.7 µM; GI50 (MIA pancreas [23]; [26]): > 50 µM; GI50 [24, 26]: > 50000 nM; GI50 [25]: > 50 µM
Cc1c(C)c2cccnc2c2ncccc12.N[C@H]1CCCC[C@@H]1N.[Cl-].[Cl-].[Pt+2] [56MESS(II)]	15 ± 6.2	76 ± 8.7	33 ± 12	39 ± 7.7	28 ± 4.7	36 ± 11	10 ± 1.3	86 ± 3	150	22	25 ± 10	27 ± 4.1		
N[C@H]1CCCC[C@@H]1N.O=[N+]([O-])[O-].O=[N+]([O-])[O-].[OH-].[OH-].[Pt+4].c1cnc2c(c1)ccc1cccnc12 [PHENSS(IV)]														GI50 [14, 27]: 710 ± 300 nM; GI50 (U87 glioblastoma [15]; [27]): 4.9 ± 0.61 µM; GI50 (MCF-7 breast [16]; [27]): 16 µM; GI50 (A2780 ovarian [17]; [27]): 0.8 ± 0.084 µM; GI50 (H460 lung [18]; [27]): 1.7 ± 0.2 µM; GI50 (A431 skin [19]; [27]): 4.3 ± 0.53 µM; GI50 [20, 27]: 0.31 ± 0.092 µM; GI50 (BE2-C neuroblastoma [21]; [27]): 3 ± 0.53 µM; GI50 (SJ-G2 glioblastoma [22]; [27]): 1.7 µM; GI50 (MIA pancreas [23]; [27]): 3.4 µM; GI50 [24, 27]: 1700 nM
COc1ccc2c(c1)c(CC(=O)[O][Pt-2]13([OH])([NH2+]C4CCCCC4[NH2+]1)[n+]1cccc4ccc5ccc[n+]3c5c41)c(C)n2C(=O)c1ccc(Cl)cc1.O=[N+]([O-])[O-].O=[N+]([O-])[O-] (centres unmarked) [compound 1, [Pt(Phen)(SSDACH)(Indomethacin)(OH)](NO3)2]	83 ± 40		740 ± 230	390 ± 87	370 ± 55	400 ± 84	160 ± 54		970 ± 290	330	340 ± 100	350 ± 81	1.08	
